Bounds are passed on as bounds.

The text below walks through data of patent US9376418B2, “Substituted pyridine spleen tyrosine kinase (SYK) inhibitors” (Merck Sharp & Dohme Corp., priority 2012, dated 2016).

Tested on in the first data set: not given
Experiment: not given
As to conditions: phase II clinical trial, allergic rhinitis; cited from earlier work.
On to `Oc1cccc(Nc2ncc(F)c(Nc3cccc(O)c3)n2)c1` [Example R112], for which the efficacy versus placebo result was “lack of efficacy”.

The target of the next data set is T1, recombinant human GST-SYK (Homo sapiens, UniProt P43405).
T1 construct: purchased Carna Biosciences 08-176
Description: Homogeneous Time-Resolved Fluorescence (HTRF) assay for the recombinant human Syk enzyme. Format: biochemical. The note with it: HTRF assay, recombinant human GST-SYK; IC50 given as class symbols; read-out: rhSYK Activity. The procedure, abridged: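 Phosphorylation of a biotinylated Syk substrate peptide (250 nM) was run for 45 min at room temperature with 25 μM ATP and 5 mM Mg. It followed a 10-min preincubation of GST-hSYK ([…]) with compound in 15 mM Tris-HCl pH 7.5, 2 mM DTT. Product was detected by time-resolved fluorescence using a europium anti-phosphotyrosine antibody plus SA-APC in EDTA-containing quench buffer.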
(TR-FRET usually uses a lanthanide donor and a delayed reading to cut background.)
Turning to `Cc1cc(Nc2nccc(C(F)(F)F)n2)cc(-c2ccc(C(=O)N3CCC(C)(O)C3)nc2)c1` (centres unmarked) [Example 16.42, 3-methyl-1-{[5-(3-methyl-5-{[4-(trifluoromethyl)pyrimidin-2-yl]amino}phenyl)pyridin-2-yl]carbonyl}pyrrolidin-3-ol], the IC50 is under 100 nM.
With `Cc1ccnc(Nc2cccc(-c3ccc(N[C@H]4CC[C@H](C(=O)O)CC4)nc3)c2)n1` [Example 2.107, trans-4-[(5-{3-[(4-methylpyrimidin-2-yl)amino]phenyl}pyridin-2-yl)amino]cyclohexanecarboxylic acid], the IC50 is under 100 nM.
Still for that read-out and setting: the same measure for `Cc1cc(Nc2nccc(C(F)(F)F)n2)cc(-c2ccc(N3CC(C(=O)O)C3)nc2)c1` [Example 7.133, 1-[5-(3-methyl-5-{[4-(trifluoromethyl)pyrimidin-2-yl]amino}phenyl)pyridin-2-yl]azetidine-3-carboxylic acid]: under 100 nM; for `Cc1cc(Nc2nccc(C(F)(F)F)n2)cc(-c2ccc(C(=O)NC3(CO)CCCC3)nc2)c1` [Example 16.21, N-[1-(hydroxymethyl)cyclopentyl]-5-(3-methyl-5-{[4-(trifluoromethyl)pyrimidin-2-yl]amino}phenyl)pyridin-2-carboxamide]: 100 to 1000 nM; for `Cc1cc(Nc2nccc(C(F)(F)F)n2)cc(-c2ccc(C3(O)CCC(C(=O)O)C(C)(C)C3)nc2)c1` (centres unmarked) [Example 9.46, 4-hydroxy-2,2-dimethyl-4-[5-(3-methyl-5-{[4-(trifluoromethyl)pyrimidin-2-yl]amino}phenyl)pyridin-2-yl]cyclohexanecarboxylic acid]: under 100 nM.
The same measure, in the same setting: the same measure for `COCC1CCCN1c1ccc(-c2cc(C)cc(Nc3nccc(C(F)(F)F)n3)c2)cn1` (centres unmarked) [Example 7.54, N-(3-{6-[2-(methoxymethyl)pyrrolidin-1-yl]pyridin-3-yl}-5-methylphenyl)-4-(trifluoromethyl)pyrimidin-2-amine]: 100 to 1000 nM.
Same read-out and setting: the same measure for `Cc1cc(Nc2nccc(C(F)(F)F)n2)cc(-c2ccc(S(=O)(=O)NCC(=O)O)nc2)c1` [Example 21.1, N-{[5-(3-methyl-5-{[4-(trifluoromethyl)pyrimidin-2-yl]amino}phenyl)pyridin-2-yl]sulfonyl}glycine]: under 100 nM.
On to `Cc1cc(Nc2nccc(OC3CCNCC3)n2)cc(-c2cccnc2)c1` [Example 20.2, N-[3-methyl-5-(pyridin-3-yl)phenyl]-4-(piperidin-4-yloxy)pyrimidin-2-amine], for which the IC50 was under 100 nM.
Take `Cc1cc(Nc2nccc(C(F)(F)F)n2)cc(-c2ccc(Oc3ccc(C(N)=O)cc3)nc2)c1` [Example 12.3, 4-{[5-(3-Methyl-5-{[4-(trifluoromethyl)pyrimidin-2-yl]amino}phenyl)pyridin-2-yl]oxy}benzamide]: the IC50 was in the range of 100 to 1000 nM.
For the molecule `Cc1cc(Nc2nccc(C(F)(F)F)n2)cc(-c2ccc(C(=O)NC3(CO)CC3)nc2)c1` [Example 16.8, N-[1-(hydroxymethyl)cyclopropyl]-5-(3-methyl-5-{[4-(trifluoromethyl)pyrimidin-2-yl]amino}phenyl)pyridine-2-carboxamide], the IC50 was 100 to 1000 nM.
On the same count and under the same terms, with `O=C(O)c1cncc(-c2cccc(Nc3nccc(C(F)(F)F)n3)c2)c1` [Example 2.73, 5-(3-{[4-(trifluoromethyl)pyrimidin-2-yl]amino}phenyl)pyridine-3-carboxylic acid] the figure was under 100 nM; with `Cc1cc(Nc2nccc(C(F)(F)F)n2)cc(-c2ccc(N3C[C@H](O)C[C@H]3C(=O)O)nc2)c1` [Example 7.105, (4R)-4-hydroxy-1-[5-(3-methyl-5-{[4-(trifluoromethyl)pyrimidin-2-yl]amino}phenyl)pyridin-2-yl]-L-proline], under 100 nM.
The same measure, in the same setting: with `COc1cccc(-c2cccc(Nc3nccc(C(F)(F)F)n3)c2)n1` [Example 2.3, N-[3-(6-methoxypyridin-2-yl)phenyl]-4-(trifluoromethyl)pyrimidin-2-amine] the figure was 1000 to 10000 nM; with `Cc1cc(Nc2nccc(C(F)(F)F)n2)cc(-c2ccc(N3CCCC(C(=O)O)C3)nc2)c1` (centres unmarked) [Example 7.135, 1-[5-(3-methyl-5-{[4-(trifluoromethyl)pyrimidin-2-yl]amino}phenyl)pyridin-2-yl]piperidine-3-carboxylic acid], under 100 nM; with `CCC(CO)Nc1ccc(-c2cc(C)cc(Nc3nccc(C(F)(F)F)n3)c2)cn1` (centres unmarked) [Example 7.23, 2-{[5-(3-methyl-5-{[4-(trifluoromethyl)pyrimidin-2-yl]amino}phenyl)pyridin-2-yl]amino}butan-1-ol], under 100 nM.
Still for that read-out and setting: the same measure for `Cc1cc(Nc2nccc(C(F)(F)F)n2)cc(-c2ccc(C(C)(O)CO)nc2)c1` (centres unmarked) [Example 9.57, 2-[5-(3-methyl-5-{[4-(trifluoromethyl)pyrimidin-2-yl]amino}phenyl)pyridin-2-yl]propane-1,2-diol]: under 100 nM; for `Cc1cc(Nc2nccc(C(F)(F)F)n2)cc(-c2ccnc(N3CCC(F)(F)CC3)c2)c1` [Example 15.70, N-{3-[2-(4,4-difluoropiperidin-1-yl)pyridin-4-yl]-5-methylphenyl}-4-(trifluoromethyl)pyrimidin-2-amine]: 100 to 1000 nM.
Take `Cc1cc(Nc2nccc(C(F)(F)F)n2)cc(-c2ccnc(N(C)CCO)c2)c1` [Example 15.45, 2-{methyl[4-(3-methyl-5-{[4-(trifluoromethyl)pyrimidin-2-yl]amino}phenyl)pyridin-2-yl]amino}ethanol]: the IC50 was under 100 nM.
Still for that read-out and setting: with `COC1CN(C(=O)c2ccc(-c3cc(C)cc(Nc4nccc(C(F)(F)F)n4)c3)cn2)C1` [Example 16.34, N-(3-{6-[(3-methoxyazetidin-1-yl)carbonyl]pyridin-3-yl}-5-methylphenyl)-4-(trifluoromethyl)pyrimidin-2-amine] the figure was 100 to 1000 nM.
Same read-out and setting: the same measure for `COc1cncc(-c2cc(C)cc(Nc3nccc(C(F)(F)F)n3)c2)c1` [Example 2.58, N-[3-(5-methoxypyridin-3-yl)-5-methylphenyl]-4-(trifluoromethyl)pyrimidin-2-amine]: under 100 nM; for `CCCCOC(=O)C1CCC(C(C)(O)c2ccc(-c3cc(C)cc(Nc4nccc(C(F)(F)F)n4)c3)cn2)CC1` (single isomer, unassigned) [Example 9.52, butyl trans-4-{(1R or 1S)-1-hydroxy-1-[5-(3-methyl-5-{[4-(trifluoromethyl)pyrimidin-2-yl]amino}phenyl)pyridin-2-yl]ethyl}cyclohexanecarboxylate]: 100 to 1000 nM; for `COC(=O)CC(=O)Nc1ccc(-c2cc(C)cc(Nc3nccc(C(F)(F)F)n3)c2)cn1` [Example 8.3, methyl 3-{[5-(3-methyl-5-{[4-(trifluoromethyl)pyrimidin-2-yl]amino}phenyl)pyridin-2-yl]amino}-3-oxopropanoate]: under 100 nM.
Same read-out and setting: the same measure for `Cc1cc(Nc2nccc(C(F)(F)F)n2)cc(-c2ccc(C(=O)N(C)CC3COCCO3)nc2)c1` (centres unmarked) [Example 16.38, N-(1,4-dioxan-2-ylmethyl)-N-methyl-5-(3-methyl-5-{[4-(trifluoromethyl)pyrimidin-2-yl]amino}phenyl)pyridine-2-carboxamide]: 100 to 1000 nM.
With `Cc1cc(Nc2nccc(C(F)(F)F)n2)cc(-c2ccc(NC(C)(C)C(=O)O)nc2)c1` [Example 7.7, 2-methyl-N-[5-(3-methyl-5-{[4-(trifluoromethyl)pyrimidin-2-yl]amino}phenyl)pyridin-2-yl]alanine], the IC50 was under 100 nM.
Still for that read-out and setting: the same measure for `COc1ccc(-c2cc(C)cc(Nc3nccc(C(F)(F)F)n3)c2)cn1` [Example 4.5, N-[3-(6-methoxypyridin-3-yl)-5-methylphenyl]-4-(trifluoromethyl)pyrimidin-2-amine]: 100 to 1000 nM; for `Cc1cc(Nc2nccc(C(F)(F)F)n2)cc(-c2ccc(N)c(O)n2)c1` [Example 2.10, 3-amino-6-(3-methyl-5-{[4-(trifluoromethyl)pyrimidin-2-yl]amino}phenyl)pyridin-2-ol]: under 100 nM.

A further data set has as its system PGD2.
Experiment: not given
As to conditions: dosed intranasally, phase I/II study, allergic rhinitis; cited from earlier work.
As to `Oc1cccc(Nc2ncc(F)c(Nc3cccc(O)c3)n2)c1` [Example R112], the “change in PGD2” value was “statistically significant decrease” and the clinical safety result is on record as “safe across a range of indicators”.
